Measurements: ChEMBL document CHEMBL1124696, “Nucleoside peptides. 10. Synthesis and T-cell immunostimulatory properties of certain peptide derivatives of 6-azacadeguomycin” (1989)

How the values were obtained:
Type in all cases: functional
[1] = species: Homo sapiens; assay: Mitogen-induced human lymphocyte proliferation measured by incorporation of [3H]thymidine in lymphocytes with Pokeweed mitogen at a concentration of 1/2500 ug with compound at 1 uM
[2] = species: Homo sapiens; assay: Mitogen-induced human lymphocyte proliferation measured by incorporation of [3H]thymidine in lymphocytes with Pokeweed mitogen at a concentration of 1/2500 ug with compound at 400 uM
[3] = species: Homo sapiens; assay: Mitogen-induced human lymphocyte proliferation measured by incorporation of [3H]thymidine in lymphocytes with Pokeweed mitogen at a concentration of 1/2500 ug with compound at 50 uM
[4] = species: Homo sapiens; assay: Mitogen-induced human lymphocyte proliferation measured by incorporation of [3H]thymidine in lymphocytes with Pokeweed mitogen at a concentration of 1/2500 ug with out compound
[5] = species: Homo sapiens; assay: Mitogen-induced human lymphocyte proliferation measured by incorporation of [3H]thymidine in lymphocytes with Concanavalin A at a concentration of 0.25 ug with compound at 400 uM
[6] = species: Homo sapiens; assay: Mitogen-induced human lymphocyte proliferation measured by incorporation of [3H]thymidine in lymphocytes with Pokeweed mitogen at a concentration of 1/2500 ug with compound at 10 uM
[7] = species: Homo sapiens; assay: Mitogen-induced human lymphocyte proliferation measured by incorporation of [3H]thymidine in lymphocytes with Pokeweed mitogen at a concentration of 1/2500 ug with compound at 0.1 uM
[8] = species: Homo sapiens; assay: Mitogen-induced human lymphocyte proliferation measured by incorporation of [3H]thymidine in lymphocytes with Phytohemagglutininin at a concentration of 0.125 ug with out compound
[9] = species: Homo sapiens; assay: Mitogen-induced human lymphocyte proliferation measured by incorporation of [3H]thymidine in lymphocytes with Phytohemagglutininin at a concentration of 0.125 ug with compound at 400 uM
[10] = species: Homo sapiens; assay: Mitogen-induced human lymphocyte proliferation measured by incorporation of [3H]-thymidine in lymphocytes with Phytohemagglutininin at a concentration of 0.125 ug with compound at 50 uM
[11] = species: Homo sapiens; assay: Mitogen-induced human lymphocyte proliferation measured by incorporation of [3H]thymidine in lymphocytes with Concanavalin A (Con A) at a concentration of 0.25 ug with compound at 0.1 uM
[12] = species: Homo sapiens; assay: Mitogen-induced human lymphocyte proliferation measured by incorporation of [3H]thymidine in lymphocytes with Concanavalin A (Con A) at a concentration of 0.25 ug with compound at 50 uM
[13] = species: Homo sapiens; assay: Mitogen-induced human lymphocyte proliferation measured by incorporation of [3H]thymidine in lymphocytes with Concanavalin A (Con A) at a concentration of 0.25 ug with compound at 1 uM
[14] = species: Homo sapiens; assay: Mitogen-induced human lymphocyte proliferation measured by incorporation of [3H]thymidine in lymphocytes with Concanavalin A (Con A) at a concentration of 0.25 ug with out compound
[15] = species: Homo sapiens; assay: Mitogen-induced human lymphocyte proliferation measured by incorporation of [3H]thymidine in lymphocytes with Phytohemagglutininin at a concentration of 0.125 ug with compound at 0.1 uM
[16] = species: Homo sapiens; assay: Mitogen-induced human lymphocyte proliferation measured by incorporation of [3H]thymidine in lymphocytes with Phytohemagglutininin at a concentration of 0.125 ug with compound at 1 uM
[17] = species: Homo sapiens; assay: Mitogen-induced human lymphocyte proliferation measured by incorporation of [3H]thymidine in lymphocytes with Concanavalin A (Con A) at a concentration of 0.25 microg with compound at 10 uM
[18] = species: Homo sapiens; assay: Mitogen-induced human lymphocyte proliferation measured by incorporation of [3H]thymidine in lymphocytes with Phytohemagglutininin at a concentration of 0.125 ug with compound at 10 uM
[19] = species: Homo sapiens; assay: Mitogen-induced human lymphocyte proliferation measured by incorporation of [3H]thymidine in lymphocytes with Pokeweed mitogen at a concentration of 1/2500 ug with compound at 1 uM.
[20] = species: Homo sapiens; assay: Mitogen-induced human lymphocyte proliferation measured by incorporation of [3H]thymidine in lymphocytes with Pokeweed mitogen at a concentration of 1/2500 ug without compound
[21] = species: Homo sapiens; assay: Mitogen-induced human lymphocyte proliferation measured by incorporation of [3H]thymidine in lymphocytes with Phytohemagglutininin at a concentration of 0.125 ug without compound
[22] = species: Homo sapiens; assay: Mitogen-induced human lymphocyte proliferation measured by incorporation of [3H]thymidine in lymphocytes with Concanavalin A (Con A) at a concentration of 0.25 ug with compound at 10 uM
[23] = species: Homo sapiens; assay: Mitogen-induced human lymphocyte proliferation measured by incorporation of [3H]thymidine in lymphocytes with Phytohemagglutininin at a concentration of 0.25 ug with compound at 10 uM
[24] = species: Homo sapiens; assay: Mitogen-induced human lymphocyte proliferation measured by incorporation of [3H]thymidine in lymphocytes with Phytohemagglutininin at a concentration of 0.25 ug with compound at 1 uM
[25] = species: Homo sapiens; assay: Mitogen-induced human lymphocyte proliferation measured by incorporation of [3H]thymidine in lymphocytes with Phytohemagglutininin at a concentration of 0.25 ug with compound at 400 uM
[26] = species: Homo sapiens; assay: Mitogen-induced human lymphocyte proliferation measured by incorporation of [3H]thymidine in lymphocytes with Phytohemagglutininin at a concentration of 0.25 ug with compound at 50 uM
[27] = species: Homo sapiens; assay: Mitogen-induced human lymphocyte proliferation measured by incorporation of [3H]-thymidine in lymphocytes with Phytohemagglutininin at a concentration of 0.25 ug with compound at 0.1 uM
[28] = species: Homo sapiens; assay: Mitogen-induced human lymphocyte proliferation measured by incorporation of [3H]-thymidine in lymphocytes with Pokeweed mitogen at a concentration of 1/2500 ug with compound at 1 uM
[29] = species: Homo sapiens; assay: Mitogen-induced human lymphocyte proliferation measured by incorporation of [3H]-thymidine in lymphocytes with Pokeweed mitogen at a concentration of 1/2500 ug with out compound
[30] = species: Homo sapiens; assay: Mitogen-induced human lymphocyte proliferation measured by incorporation of [3H]thymidine in lymphocytes with Phytohemagglutininin at a concentration of 0.25 ug with out compound
[31] = species: Homo sapiens; assay: Mitogen-induced human lymphocyte proliferation measured by incorporation of [3H]thymidine in lymphocytes with Concanavalin A (Con A) at a concentration of 0.5 ug with compound at 0.1 uM
[32] = species: Homo sapiens; assay: Mitogen-induced human lymphocyte proliferation measured by incorporation of [3H]thymidine in lymphocytes with Concanavalin A (Con A) at a concentration of 0.5 ug with out compound
[33] = species: Homo sapiens; assay: Mitogen-induced human lymphocyte proliferation measured by incorporation of [3H]thymidine in lymphocytes with Concanavalin A (Con A) at a concentration of 0.5 ug with compound at 10 uM
[34] = species: Homo sapiens; assay: Mitogen-induced human lymphocyte proliferation measured by incorporation of [3H]thymidine in lymphocytes with Concanavalin A (Con A) at a concentration of 0.5 ug with compound at 50 uM
[35] = species: Homo sapiens; assay: Mitogen-induced human lymphocyte proliferation measured by incorporation of [3H]thymidine in lymphocytes with Concanavalin A (Con A) at a concentration of 0.5 ug with compound at 1 uM
[36] = species: Homo sapiens; assay: Mitogen-induced human lymphocyte proliferation measured by incorporation of [3H]thymidine in lymphocytes with Concanavalin A at a concentration of 0.5 ug with compound at 400 uM
[37] = species: Homo sapiens; assay: Mitogen-induced human lymphocyte proliferation measured by incorporation of [3H]thymidine in lymphocytes with Pokeweed mitogen at a concentration of 1/5000 ug with compound at 400 uM
[38] = species: Homo sapiens; assay: Mitogen-induced human lymphocyte proliferation measured by incorporation of [3H]thymidine in lymphocytes with Pokeweed mitogen at a concentration of 1/5000 ug with compound at 10 uM
[39] = species: Homo sapiens; assay: Mitogen-induced human lymphocyte proliferation measured by incorporation of [3H]thymidine in lymphocytes with Pokeweed mitogen at a concentration of 1/5000 ug with compound at 1 uM
[40] = species: Homo sapiens; assay: Mitogen-induced human lymphocyte proliferation measured by incorporation of [3H]thymidine in lymphocytes with Pokeweed mitogen at a concentration of 1/5000 ug with out compound
[41] = species: Homo sapiens; assay: Mitogen-induced human lymphocyte proliferation measured by incorporation of [3H]thymidine in lymphocytes with Pokeweed mitogen at a concentration of 1/5000 ug with compound at 0.1 uM
[42] = species: Homo sapiens; assay: Mitogen-induced human lymphocyte proliferation measured by incorporation of [3H]thymidine in lymphocytes with Phytohemagglutininin at a concentration of 0.125 ug with compound at 50 uM
[43] = species: Homo sapiens; assay: Mitogen-induced human lymphocyte proliferation measured by incorporation of [3H]thymidine in lymphocytes with Phytohemagglutininin at a concentration of 0.25 ug with compound at 0.1 uM
[44] = species: Homo sapiens; assay: Mitogen-induced human lymphocyte proliferation measured by incorporation of [3H]-thymidine in lymphocytes with Pokeweed mitogen at a concentration of 1/5000 ug with compound at 50 uM

Row | SMILES | Incorporation [1] | Incorporation [2] | Incorporation [3] | Incorporation [5] | Incorporation [6] | Incorporation [7] | Incorporation [8] | Incorporation [9] | Incorporation [11] | Incorporation [12] | Incorporation [13] | Incorporation [14] | Incorporation [15] | Incorporation [16] | Incorporation [18] | Incorporation [23] | Incorporation [24] | Incorporation [25] | Incorporation [26] | Incorporation [29] | other results
1 | NC(=O)[C@H](Cc1ccccc1)NC(=O)c1nn(C2O[C@H](CO)[C@@H](O)[C@H]2O)c2nc(N)[nH]c(=O)c12 (some centres not stated) | 41073 | 37204 | 40511 | 30812 | 44634 | 39180 | 38473 | 42771 | 24317 | 27642 | 26510 | 27326 | 26149 | 35042 | 54960 | – | – | – | – | – | Incorporation [4]: 31047; Incorporation [10]: 53121; Incorporation [17]: 29989
2 | Nc1nc2c(c(C(=O)O)nn2C2O[C@H](CO)[C@@H](O)[C@H]2O)c(=O)[nH]1 (some centres not stated) | – | 34537 | 34808 | 22619 | 36867 | 35813 | – | – | 20186 | 22446 | 21319 | 21143 | – | – | – | 32955 | 28393 | 29655 | 31662 | – | Incorporation [19]: 39189; Incorporation [20]: 35867; Incorporation [21]: 28436; Incorporation [22]: 27385; Incorporation [27]: 25106
3 | NC(=O)CC[C@H](NC(=O)c1nn(C2O[C@H](CO)[C@@H](O)[C@H]2O)c2nc(N)[nH]c(=O)c12)C(N)=O (some centres not stated) | – | 29854 | 44234 | 24167 | 45049 | 46067 | – | – | 26181 | 28119 | 30068 | 25758 | – | – | – | 48588 | 50331 | 39824 | 43877 | 40326 | Incorporation [28]: 39260; Incorporation [30]: 57799; Incorporation [22]: 31799; Incorporation [27]: 49448
4 | NC(=O)CNC(=O)c1nn(C2O[C@H](CO)[C@@H](O)[C@H]2O)c2nc(N)[nH]c(=O)c12 (some centres not stated) | 42288 | 40023 | 39719 | – | 44370 | 44670 | 35075 | 66017 | – | – | – | – | 27956 | 32413 | 47343 | – | – | – | – | 39468 | Incorporation [10]: 50056; Incorporation [31]: 43954; Incorporation [32]: 43401; Incorporation [33]: 46662; Incorporation [34]: 44360; Incorporation [35]: 40503; Incorporation [36]: 43649
5 | N=C(N)NCCC[C@H](NC(=O)[C@H](Cc1ccccc1)NC(=O)c1nn(C2O[C@H](CO)[C@@H](O)[C@H]2O)c2nc(N)[nH]c(=O)c12)C(N)=O (some centres not stated) | 18470 | 18394 | 19755 | – | 18784 | 17344 | 23120 | 26854 | – | – | – | – | 22401 | 19743 | 36645 | 36688 | 46087 | 33862 | 37174 | 15723 | Incorporation [37]: 8214; Incorporation [38]: 8734; Incorporation [39]: 8437; Incorporation [40]: 7043; Incorporation [41]: 11906; Incorporation [30]: 35768; Incorporation [42]: 21841; Incorporation [31]: 43850; Incorporation [32]: 35226; Incorporation [33]: 41908; Incorporation [34]: 36977; Incorporation [35]: 36088; Incorporation [36]: 30792; Incorporation [43]: 38673; Incorporation [44]: 9960
